Molecules are shown by their SMILES. Values joined by “and” are separate entries in the source; they are usually repeats but may differ in a detail not shown here. Identical values can stand only once. Like-named read-outs stand apart in the source and are kept apart here.

Test [1] deals with SUDHL5. In words: Induction of cytotoxicity (Assay 6), SUDHL5. As to conditions: Homo sapiens, SU-DHL-5, 5 h, read-out: Cytotox SUDHL5 [M] (median) IC50, CellTiter-Glo, 5 hours, SUDHL5. Background: Cellular ATP, detected with luciferase, serves as a proxy for viable cell number.
For a further test, the system named is MV-4-11. The test is described as follows: Antiproliferation assay (Assay 7), MV-4-11. Type of test: cell-based. The conditions noted are these: CellTiter-Glo, several values per example, read-out: Antiproli MV-4-11 [M] IC50. In a few lines: (§1)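 Proliferation over 72 h at 37° C was assessed by luminescent cell viability reagent, referenced to a day 0 plate.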

In test [2] the test system is SUDHL5. In words: Induction of caspase-3/7 activity (Assay 4), SUDHL5. Type of test: cell-based. As to conditions: Homo sapiens, SU-DHL-5, 3 h, caspase-3/7 induction, median. In a few lines:
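DLBCL cells were exposed to compounds for 3 hours at 37 °C, then caspase-3/7 activation was read with Caspase-Glo 3/7 reagent. After subtracting medium-only background, EC50s were derived with fixed C0=1 and the reference compound's maximal induction as plateau.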

The next test deals with BCL-2 (Homo sapiens (Human), UniProt P10415). The test is described as follows: Protein-protein interaction assay BCL-2/Bad BH3 peptide (BCL-2 assay, TR-FRET). Type of test: binding. The conditions noted are these: His-BCL-2 / Bad BH3 peptide, median. How it is done:
Assay 3 Protein-Protein Interaction Assay: BCL-2/Bad BH3 Peptide (BCL-2 Assay)
The dose-dependent inhibition by the compounds described in this invention of the interaction between BCL-2 and the BH3 domain of Bad (both human) was determined using a steady state binding competition assay with time-resolved fluorescence energy transfer (TR-FRET) readout. For that purpose BCL-2 (amino acids 1-211, C-terminal fused to a hexahistidine (6×His) tag (SEQ ID 5) and a synthetic Bad BH3-derived peptide of sequence Biotin-PEG2-PEG2-NLWAAQRYGRELRR-Nle-SDEFVDSFKK-amide (SEQ ID 4) served as protein receptor and tracer ligand respectively. The recombinant BCL-2 protein (expressed in E. coli) was purchased from BPS Bioscience (San Diego, Calif., USA). The Bad BH3-derived peptide can be obtained from e.g. Biosyntan (Berlin, Germany).
In the assay 11 different concentrations of each compound (0.1 nM, 0.33 nM, 1.1 nM, 3.8 nM, 13 nM, 44 nM, 0.15 μM, 0.51 μM, 1.7 μM, 5.9 μM and 20 μM) were typically measured as duplicates in the same microtiter plate. For that, 100-fold concentrated DMSO solutions were prepared by serial dilutions (1:3.4) of a 2 mM stock solution in a clear, 384-well microtiter plate (Greiner Bio-One, Frickenhausen, Germany). From there, 50 nl were transferred in a dark test plate (Greiner Bio-One, Frickenhausen, Germany). The assay was initiated by addition of 2 μl of a 2.5-fold concentrated His-BCL-2 solution (usually for a 1 nM end concentration in 5 μl reaction volume) in aqueous assay buffer [50 mM Tris/HCl pH 7, 100 mM sodium chloride (NaCl), 50 mM potassium fluoride (KF), 0.005% Tween-20, 2 mM DTT, 0.1% bovine gamma globulin (BGG)] to the compounds in the assay plate. This was followed by a 10-minute incubation step at 22° C. for pre-equilibration of the putative complex between His-BCL-2 and the compounds. After that, 3 μl of a 1.67-fold concentrated solution (in assay buffer) consisting of Bad BH3-derived peptide (1 nM end concentration) and TR-FRET detection reagents [1.67 nM anti-His-Eu cryptate and 1.67 nM streptavidin-XL665 (both from Cisbio Bioassays, Codolet, France)], were added.
The mixture was incubated in the dark for one hour at 22° C. and then overnight at 4° C. The formation of BCL-2/Bad complexes was determined by measuring the resonance energy transfer of the anti-His-Eu-cryptate antibody to the streptavidin-XL665 present in the reaction. For that purpose, the fluorescence emission at 620 nm and 665 nm after excitation at 330-350 nm was measured in a TR-FRET measuring instrument, for instance a Rubystar or a Pherastar (both from BMG Lab Technologies, Offenburg, Germany) or a Viewlux (Perkin-Elmer). The ratio of the emission at 665 nm and at 622 nm was used as indicator of the amount of BCL-2/Bad complexes present.
The resulting data (ratio) were normalized, taking 0% inhibition as the mean value of control measurements (usually 32 data points) where all reagents were included. In this case 50 nl DMSO were used instead of compounds. A 100% inhibition corresponded to the mean value of control measurements (usually 32 data points) where all reagents except BCL-2 were included. IC50 values were determined by regression analysis based on a 4 parameter equation (minimum, maximum, IC50, Hill; Y=Max+(Min−Max)/(1+(X/IC50)^HiII) using the Screener Software (Genedata).
In general terms: In TR-FRET formats the signal depends on donor and acceptor labels being close together.

In test [3] the test system is SUDHL5. The test is described as follows: Antiproliferation assay (Assay 7), SUDHL5. In kind it is cell-based. As to conditions: Homo sapiens, SU-DHL-5, 72 h, CellTiter-Glo, median, read-out: Antiproli SUDHL5 [M] (median) IC50. In a few lines: as §1

Sequence of BCL-2 (P10415 other isoform, or with tags, fused parts or gaps): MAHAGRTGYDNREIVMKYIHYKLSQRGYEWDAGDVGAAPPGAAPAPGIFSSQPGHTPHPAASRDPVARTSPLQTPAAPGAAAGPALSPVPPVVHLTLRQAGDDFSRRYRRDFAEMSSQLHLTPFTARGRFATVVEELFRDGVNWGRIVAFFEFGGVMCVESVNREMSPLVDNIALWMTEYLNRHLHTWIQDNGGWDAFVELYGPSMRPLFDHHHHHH

For the molecule `Cc1c2c(nn1C)CN(C)S(=O)(=O)CCCn1c(C(=O)O)c(CCCOc3cccc4cc(F)ccc34)c3ccc(F)c-2c31` (racemic) [Example 25, (rac)-13-Fluoro-1-(3-((6-fluoronaphthalen-1-yl)oxy)propyl)-8,11,12-trimethyl-5,6,9,11-tetrahydro-4H,8H-pyrazolo[3′,4′:4,5][1]thia[2,8]diazacycloundecino[6,7,8-hi]indole-2-carboxylic acid 7,7-dioxide], the IC50 – broadly, the midpoint of a concentration-inhibition curve – in the test with SUDHL5 [1] was 7.5e-07 M; with MV-4-11 (Homo sapiens, MV4-11, 72 h), 1.73e-06 M; against BCL-2, > 20000 nM and 51000 nM and 46000 nM; in the test with SUDHL5 [3] it was 4.1e-07 M. Besides, in the test on SUDHL5 [2], the midpoint of the response, the EC50, lay at 670 nM.
Turning to `Cc1c2c(nn1C)CN(C)S(=O)(=O)CCCn1c(C(=O)O)c(CCCOc3cccc4ccccc34)c3ccc(F)c-2c31` (racemic) [Example 26, (rac)-13-Fluoro-8,11,12-trimethyl-1-(3-(naphthalen-1-yloxy)propyl)-5,6,9,11-tetrahydro-4H,8H-pyrazolo[3′,4′:4,5][1]thia[2,8]diazacycloundecino[6,7,8-hi]indole-2-carboxylic acid 7,7-dioxide], the half-inhibitory concentration (IC50) in the test with SUDHL5 [1] was 1.8e-06 M; in the test with MV-4-11 (Homo sapiens, MV4-11, 72 h) it was 5.17e-07 M; against BCL-2, over 20000 nM; with SUDHL5 [3], 1.4e-06 M. Also, in the test on SUDHL5 [2], the EC50 – broadly, the midpoint of the concentration-response curve – was 1300 nM.
In the case of `Cc1c2c(nn1C)CN(C)S(=O)(=O)CCCn1c(C(=O)O)c(CCCOc3cccc4c3CCC4)c3ccc(F)c-2c31` (racemic) [Example 27, (rac)-1-(3-((2,3-Dihydro-1H-inden-4-yl)oxy)propyl)-13-fluoro-8,11,12-trimethyl-5,6,9,11-tetrahydro-4H,8H-pyrazolo[3′,4′:4,5][1]thia[2,8]diazacycloundecino[6,7,8-hi]indole-2-carboxylic acid 7,7-dioxide], the IC50 is 8.7e-07 M in the test on SUDHL5 [1]; 8.61e-07 M with MV-4-11 (Homo sapiens, MV4-11, 72 h); over 20000 nM on BCL-2; 7.8e-07 M in the test with SUDHL5 [3]. This molecule also showed an EC50 in the test on SUDHL5 [2] of 700 nM.
On to `Cc1cc(OCCCc2c(C(=O)O)n3c4c(c(F)ccc24)-c2c(nn(C)c2C)CN(C)S(=O)(=O)CCC3)cc(C)c1Cl` (racemic) [Example 28, (rac)-1-(3-(4-Chloro-3,5-dimethylphenoxy)propyl)-13-fluoro-8,11,12-trimethyl-5,6,9,11-tetrahydro-4H,8H-pyrazolo[3′,4′:4,5][1]thia[2,8]diazacycloundecino[6,7,8-hi]indole-2-carboxylic acid 7,7-dioxide], for which the half-inhibitory concentration (IC50) in the test on SUDHL5 [1] is 3.1e-06 M; in the test with MV-4-11 (Homo sapiens, MV4-11, 72 h), 7.54e-06 M; at BCL-2, over 20000 nM; in the test with SUDHL5 [3] it was 1.2e-06 M. The EC50 in the test with SUDHL5 [2] was 2000 nM.
As for `Cc1c2c(nn1C)CN(C)S(=O)(=O)CCCn1c(C(=O)O)c(CCCOc3cccc4c3CCCC4)c3ccc(F)c-2c31` (racemic) [Example 29, (rac)-13-Fluoro-8,11,12-trimethyl-1-(3-((5,6,7,8-tetrahydronaphthalen-1-yl)oxy)propyl)-5,6,9,11-tetrahydro-4H,8H-pyrazolo[3′,4′:4,5][1]thia[2,8]diazacycloundecino[6,7,8-hi]indole-2-carboxylic acid 7,7-dioxide], the IC50 was 1.8e-06 M with SUDHL5 [1]; 5.86e-06 M with MV-4-11 (Homo sapiens, MV4-11, 72 h); over 20000 nM against BCL-2; 5e-07 M in the test on SUDHL5 [3]. The molecule also displayed an EC50 with SUDHL5 [2] of 1500 nM.
On to `CCc1c2c(nn1C)CN(C)S(=O)(=O)CCCn1c(C(=O)O)c(CCCOc3cccc4ccccc34)c3ccc(F)c-2c31` (racemic) [Example 31, (rac)-12-Ethyl-13-fluoro-8,11-dimethyl-1-(3-(naphthalen-1-yloxy)propyl)-5,6,9,11-tetrahydro-4H,8H-pyrazolo[3′,4′:4,5][1]thia[2,8]diazacycloundecino[6,7,8-hi]indole-2-carboxylic acid 7,7-dioxide], for which the IC50 in the test with SUDHL5 [1] is 9.3e-07 M; with MV-4-11 (72 hours), 5.51e-06 M; in the test with MV-4-11 (Homo sapiens, MV4-11, 72 h), 4.7e-06 M; against BCL-2, over 20000 nM; in the test on SUDHL5 [3] it was 5.3e-07 M. Also, the EC50 with SUDHL5 [2] amounted to 800 nM.
Consider `CCc1c2c(nn1C)CN(C)S(=O)(=O)CCCn1c(C(=O)O)c(CCCOc3cccc4c3CCC4)c3ccc(F)c-2c31` (racemic) [Example 32, (rac)-1-(3-((2,3-Dihydro-1H-inden-4-yl)oxy)propyl)-12-ethyl-13-fluoro-8,11-dimethyl-5,6,9,11-tetrahydro-4H,8H-pyrazolo[3′,4′:4,5][1]thia[2,8]diazacycloundecino[6,7,8-hi]indole-2-carboxylic acid 7,7-dioxide], for which the IC50 was 7.4e-07 M in the test on SUDHL5 [1]; 1.14e-06 M with MV-4-11 (72 hours); 2.2e-06 M in the test on MV-4-11 (Homo sapiens, MV4-11, 72 h); over 20000 nM at BCL-2; 3.9e-07 M with SUDHL5 [3]. Moreover, in the test on SUDHL5 [2], the EC50 was 580 nM.
As for `CCc1c2c(nn1C)CN(C)S(=O)(=O)CCCn1c(C(=O)O)c(CCCOc3cccc4c3CCCC4)c3ccc(F)c-2c31` (racemic) [Example 34, (rac)-12-Ethyl-13-fluoro-8,11-dimethyl-1-(3-((5,6,7,8-tetrahydronaphthalen-1-yl)oxy)propyl)-5,6,9,11-tetrahydro-4H,8H-pyrazolo[3′,4′:4,5][1]thia[2,8]diazacycloundecino[6,7,8-hi]indole-2-carboxylic acid 7,7-dioxide], the IC50 with SUDHL5 [1] is 1.4e-06 M; in the test on MV-4-11 (Homo sapiens, MV4-11, 72 h) it was 4.83e-06 M; at BCL-2, over 20000 nM; with SUDHL5 [3], 8.2e-07 M. The molecule also registered an EC50 in the test with SUDHL5 [2] of 1300 nM.
Turning to `CCc1c2c(nn1C)CN(C)S(=O)(=O)CCCn1c(C(=O)O)c(CCCOc3ccc(F)c4ccccc34)c3ccc(F)c-2c31` (racemic) [Example 35, (rac)-12-Ethyl-13-fluoro-1-(34(4-fluoronaphthalen-1-yl)oxy)propyl)-8,11-dimethyl-5,6,9,11-tetrahydro-4H,8H-pyrazolo[3′,4′:4,5][1]thia[2,8]diazacycloundecino[6,7,8-hi]indole-2-carboxylic acid 7,7-dioxide], the IC50 is 1.6e-06 M in the test with SUDHL5 [1]; 8.18e-06 M with MV-4-11 (72 hours); 4.34e-06 M in the test with MV-4-11 (Homo sapiens, MV4-11, 72 h); over 20000 nM against BCL-2; 7.6e-07 M in the test with SUDHL5 [3]. The same molecule showed an EC50 in the test with SUDHL5 [2] of 1200 nM.
